Data taken from article PMC10170656 (RSC Chemical Biology, 2023).
“Also recorded” adds a separate entry of the source.

Columns and labels:
TDP1 = TDP1 (Homo sapiens, UniProt Q9NUW8); test: biochemical; conditions: TDP1 IC50, Table 2: triazole, ether and phthalic acid isostere derivatives
TDP2 = biological target: T1, TDP2 (Homo sapiens, UniProt O95551); format: biochemical
T1 sequence (O95551 1-362): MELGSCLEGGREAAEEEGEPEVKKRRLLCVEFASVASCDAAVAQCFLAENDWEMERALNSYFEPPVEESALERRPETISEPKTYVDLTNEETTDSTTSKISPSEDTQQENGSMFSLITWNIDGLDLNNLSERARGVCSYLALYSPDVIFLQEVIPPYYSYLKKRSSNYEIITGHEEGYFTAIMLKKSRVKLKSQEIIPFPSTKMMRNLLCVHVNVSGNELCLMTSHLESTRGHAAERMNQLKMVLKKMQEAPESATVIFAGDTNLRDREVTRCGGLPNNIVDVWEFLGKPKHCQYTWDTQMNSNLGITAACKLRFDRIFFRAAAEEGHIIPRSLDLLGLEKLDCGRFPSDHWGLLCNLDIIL

[1] = Survival curve and cytotoxicity in HCT116 cells; format: cell-based; conditions: human, HCT116 cells (colon cancer cell line)
HCT116 cells = test: Synergistic effect of TDP1 inhibitors with camptothecin; format: cell-based, human; conditions: concentrations below CC50, 72 h

Chain of TDP1 (Q9NUW8 whole entry): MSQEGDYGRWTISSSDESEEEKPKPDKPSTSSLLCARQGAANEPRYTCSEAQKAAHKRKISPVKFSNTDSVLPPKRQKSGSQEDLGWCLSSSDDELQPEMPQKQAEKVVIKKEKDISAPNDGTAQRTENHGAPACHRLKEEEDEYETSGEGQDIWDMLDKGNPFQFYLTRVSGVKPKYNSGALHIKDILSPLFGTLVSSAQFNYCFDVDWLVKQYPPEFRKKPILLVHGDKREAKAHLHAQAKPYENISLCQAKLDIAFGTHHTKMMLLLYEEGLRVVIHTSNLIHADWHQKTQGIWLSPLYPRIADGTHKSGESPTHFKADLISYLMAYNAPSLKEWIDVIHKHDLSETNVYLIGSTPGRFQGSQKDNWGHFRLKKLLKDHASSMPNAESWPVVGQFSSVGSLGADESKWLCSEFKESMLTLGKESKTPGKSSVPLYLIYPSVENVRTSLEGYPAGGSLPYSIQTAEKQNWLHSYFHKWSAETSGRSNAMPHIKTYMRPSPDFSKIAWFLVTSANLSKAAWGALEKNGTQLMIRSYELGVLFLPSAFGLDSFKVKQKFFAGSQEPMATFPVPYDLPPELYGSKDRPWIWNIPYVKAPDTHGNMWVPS

SMILES | IC50 (TDP1) | inhibitory potency against TDP1 relative to TDP2 (TDP2) | CC50 at 72 h [1] | synergy with the TOP1 inhibitor CPT (HCT116 cells)
N#Cc1ccc(-c2ccc(Cn3cc(-c4ccc(-c5nc6cc(-c7ccccc7)ccn6c5Nc5ccc(C(=O)O)cc5)cc4)nn3)cc2)nc1 [Compound 7d] | 3.3 ± 0.2 µM | 8 fold | 136 µM | act synergistically; also recorded: synergize
O=C(O)c1ccc(Nc2c(-c3ccccc3)nc3cc(-c4ccccc4)ccn23)cc1C(=O)O [Compound 9a, 4-((2,7-diphenylimidazo[1,2-a]pyridin-3-yl)amino)phthalic acid] | > 100 µM | – | – | –
O=C(O)c1ccc(Nc2c(-c3ccc(CCOCc4ccc(-c5ccccc5)cc4)cc3)nc3cc(-c4ccccc4)ccn23)cc1C(=O)O [Compound 9b, 4-((2-(4-(2-([1,1'-biphenyl]-4-ylmethoxy)ethyl)phenyl)-7-phenylimidazo[1,2-a]pyridin-3-yl)amino)phthalic acid] | 11.3 ± 1.93 µM | – | – | –
O=C(O)c1ccc(Nc2c(-c3ccc(CCOCc4ccc(-c5ccccn5)cc4)cc3)nc3cc(-c4ccccc4)ccn23)cc1C(=O)O [Compound 9c, 4-((7-phenyl-2-(4-(2-((4-(pyridin-2-yl)benzyl)oxy)ethyl)phenyl)imidazo[1,2-a]pyridin-3-yl)amino)phthalic acid] | 19.8 ± 1.35 µM | – | – | –
